These results are taken from paper PMC6271011, “Synthesis, Leishmanicidal and Cytotoxic Activity of Triclosan-Chalcone, Triclosan-Chromone and Triclosan-Coumarin Hybrids” (Molecules, 2014).

SMILES strings stand for the structures. Several values for one entry are separate records, joined by “and”; a condition that tells them apart may be missing. Equal values may be shown once.

One assay concerns L. major. Also on record: method as in PMID 15558191. As to conditions: against L. major; read-out: 50% inhibitory concentration (IC50), growth inhibition; cited from earlier work.
The test system of assay [1] is intracellular amastigotes of L. (V) panamensis. Put plainly: Leishmanicidal activity against intracellular amastigotes (GFP, flow cytometry, 72 h). The class given is cell-based, Leishmania (Viannia) panamensis. The protocol:
The leishmanicidal activity of compounds was evaluated on intracellular amastigotes of L. panamensis transfected with the green fluorescent protein gene (MHOM/CO/87/UA140pIR-GFP). Effect of each compound was determined according to the inhibition of the infection evidenced by both decrease of the infected cells and decrease of intracellular parasite load. Briefly, U-937 human cells at a concentration of 3 × 10^5 cells/mL in RPMI 1640 and 0.1 μg/mL of PMA (phorbol-12-myristate-13-acetate) were infected with promastigotes in stationary phase growth in a 15:1 parasites per cell ratio and incubated at 34 °C and 5% CO2 for 3 h. Cells were washed two times with phosphate buffer solution (PBS) to eliminate not internalized parasites. Fresh RPMI 1640 1 mL was added and cells were incubated during 24 h to guarantee multiplication of intracellular parasites.
After 24 h of infection, the culture medium was replaced by fresh culture medium containing each compound at concentrations of 20 μg/mL. After 72 h, the inhibition of the infection progress was determined. Cells were removed from the bottom plate with a trypsin/EDTA (250 mg) solution. Recovered cells were centrifuged at 1100 rpm during 10 min at 4 °C, the supernatant was discarded and cells were washed with 1 mL of cold PBS and centrifuged at 1100 rpm during 10 min at 4 °C. Supernatant was discarded and cells were suspended in 500 μL of PBS and analyzed by flow cytometry (FC 500MPL, Cytomics, Brea, CA, USA) counting 20.000 events. All determinations for each compound and standards were carried out in triplicate, in two isolated experiments. Activity of tested compounds was carried out in parallel with infection progress in culture medium alone and in culture medium with amphotericin B 0.05 μg/mL and meglumine antimoniate (10.0 μg/mL) as control drugs. […] The infected cells were exposed against each concentration of synthesized compounds during 72 h, then, cells were removed and tested by flow cytometry as described before.
Antileishmanial activity was determined according to percentage of infected cells and parasite load obtained for each experimental condition by the cytometer. Percentage of infected cells was determined as the number of positive events by double fluorescence (green for parasites and red for cells) using dotplot analysis. On the other hand, the parasitic load was determined by analysis of mean fluorescence intensity (MFI).
The parasitemia inhibition was calculated by Equation (2), where the MFI of control, corresponds to 100% of parasitemia. In turn, inhibition percentage corresponds to 100% Parasitemia.
The selectivity index (SI), was calculated by dividing the cytotoxic activity and the leishmanicidal activity using the following formula: SI = CL50/CE50.

For assay [2] the test system is unchanged. The assay is described as above. It counts as cell-based, Leishmania (Viannia) panamensis. As to conditions: read-out: Leishmanicidal activity % Inhibition.
Assay [3] has as its system axenic and intracellular amastigotes of Leishmania panamensis. Also on record: method as in doi:10.1007/s00044-011-9886-8. As to conditions: cited from earlier work.

As for `CC(C)=CCC/C(C)=C/COc1ccc2ccc(=O)oc2c1` [Aurapten, 7-geranyloxycoumarin], in the assay with L. major, the IC50 is 30 µM.

Turning to `Oc1cc(Cl)ccc1Oc1ccc(Cl)cc1Cl` [Triclosan], in assay [1] (LC50 U-937 / EC50 intracellular amastigotes), the “SI (Selectivity Index = LC50/EC50)” value turned out to be 1.3. In addition, in assay [1] (U-937, 72 h, read-out: Leishmanicidal activity EC50), the EC50 (usually the concentration that produces a half-maximal response) is 18.3 µg/mL and 63.2 µM. Further, the inhibition (usually the drop in the measured response relative to a control, in per cent) at 20 µg/mL in assay [2] was 61.8 ± 5.5%. Moreover, the “effective concentration (EC50)” value in assay [3] is under 24 µg/mL.
